Columns and labels:
Assay in all cases: relative viability (nuclei count vs DMSO), 5 days (fraction); higher = more cells survive
Navitoclax = compound: CC1(C)CCC(c2ccc(Cl)cc2)=C(CN2CCN(c3ccc(C(=O)NS(=O)(=O)c4ccc(N[C@H](CCN5CCOCC5)CSc5ccccc5)c(S(=O)(=O)C(F)(F)F)c4)cc3)CC2)C1 [Navitoclax]
Method in brief: (§1)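 Vehicle-anchored 1536-well plates of lung cancer cell lines, held overnight at 37 °C, were pinned with five library-drug doses (not always all listed) spaced by √10. No medium change followed over the next 5 days, after which the cells were fixed, permeabilised and Hoechst-stained together and imaged at 4×. Nuclei were counted with MetaXpress, and viability is treated-well nuclei over vehicle-well nuclei, taken as a median across plates. Plates passed with control CV below 25% and at least one doubling.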

C-75 = compound: CCCCCCCC[C@H]1[C@@H](C(=C)C(=O)O1)C(=O)O [C-75]
Method in brief: as §1

AZD7762 = compound: NC(=O)Nc1cc(-c2cccc(F)c2)sc1C(=O)N[C@H]1CCCNC1 [AZD7762]
Method in brief: as §1

[1] = compound: O=C(O)c1ccc(-c2c[nH]c3ncc(-c4ccccc4)cc23)cc1C1CCCC1
Method in brief: as §1

XAV939 = compound: Oc1nc(-c2ccc(C(F)(F)F)cc2)nc2c1CSCC2 [XAV939]
Method in brief: as §1

Cell Line	relative viability (Navitoclax; 0.005 µM)	relative viability (Navitoclax; 0.01581 µM)	relative viability (Navitoclax; 0.1581 µM)	relative viability (Navitoclax; 0.5 µM)	relative viability (Navitoclax; 0.5 µM, anchor plate)	relative viability (C-75; 0.08 µM)	relative viability (C-75; 0.253 µM)	relative viability (C-75; 0.8 µM)	relative viability (C-75; 2.53 µM)	relative viability (C-75; 8 µM)	relative viability (AZD7762; 0.01 µM)	relative viability (AZD7762; 0.03162 µM)	relative viability (AZD7762; 0.1 µM)	relative viability (AZD7762; 0.2 µM, anchor plate)	relative viability (AZD7762; 0.3162 µM)	relative viability (AZD7762; 1 µM)	relative viability ([1]; 0.04 µM)	relative viability ([1]; 0.1265 µM)	relative viability ([1]; 0.4 µM)	relative viability ([1]; 1.265 µM)	relative viability (XAV939; 0.08 µM)	relative viability (XAV939; 0.253 µM)	relative viability (XAV939; 0.8 µM)	relative viability (XAV939; 2.53 µM)	relative viability (Navitoclax; 0.05 µM)
NCI-H1734	1.03	1.08	0.888	1.01	0.859	1.09	0.949	0.956	0.632	0.766	0.977	1.12	1.02	0.575	0.856	0.507	0.985	1.11	0.939	0.764	1.03	0.913	0.92	0.842	
NCI-H1755	1.01	1.02	0.957	0.966	0.988	0.954	0.972	0.946	0.845	0.982	1.01	1.02	1.09	0.458	0.936	0.471	1.01	1.09	1.04	0.956	0.961	0.834	0.931	0.876	0.897
NCI-H1792	0.956	0.936	0.693	1.06	0.664	0.904	0.956	0.845	0.76	0.863	0.912	1.02	1.02	0.71	1.08	1.01		1.09	0.856	0.921	0.955	0.874	0.871	0.74	0.778
NCI-H1793	0.977	1.09	0.866	0.702	0.491	0.822	1.1	0.795	0.768	1.05	1.02	1.1	0.961	0.538	0.924	0.555	0.91	1.28	0.9	0.956	1.12	0.748	1.01	0.863	
NCI-H1915	0.968	0.963	0.923	0.886	0.789	0.987	1.05	0.959	0.862	0.823	1.01	1.01	1.05	0.72	0.99	0.89	1.02	0.974	0.955	0.857	1.03	0.973	1.01	0.96	1.05
NCI-H1944	0.942	1.09	0.913	0.892	1.05	0.871	0.909	0.929		0.9	1	1	1.1	0.566	0.967	0.605	0.92	1.07	0.907	0.874	1.12	0.907	0.898	0.87	0.766
NCI-H1975	0.927	1.06	0.824	0.99	1.12	0.999	0.827	0.85	0.884	0.931	0.957	0.927	0.938	0.761	0.791	0.575	0.952	1.09	0.965	0.975	0.87	0.705	0.78	0.742	1.03
NCI-H1993	0.925	1.23	0.947	0.949	1.04	1.09	1.07	0.888	0.855	0.903	0.96	0.984	0.957	0.828	1.11	0.819	0.979	1.02	0.946	0.877	0.841	0.693	0.782	0.827	0.913
NCI-H2009	0.964	1.14	1.04	1.04	1.16	0.999	0.991	0.911	0.81	0.905	1.07	0.994	1.1		1	0.834	1.01	1.01	0.963	0.762	1.12	0.996	0.924	0.899	1.02
NCI-H2023	0.919	1.04	0.97	0.909	0.994	1	1.13	0.864	0.535	0.852	0.965	0.841	0.491		0.262	0.132	1.07	1.06	0.994	0.75	1.02	0.827	0.817	0.755	0.958
NCI-H2085	1.01	1.14	1.01	1.05	1.12	1.04	0.974	0.988	0.866	0.975	1.03	0.992	1.08	0.973	1.05	0.864	0.932	1.04	0.956	0.933	1.05	0.893	0.902	0.891	0.93

— the supplement of paper PMC10307832
